Reference: US20150099754A1, “TREATMENT OF CANCER CHARACTERIZED BY GENE MUTATIONS” (SIGNAL PHARMACEUTICALS, LLC, priority 2013, published 2015)
Where “and” joins values, the source holds several entries; their conditions need not be identical. Identical values can stand only once.

Columns and labels:
[1] = tested on: Advanced Solid Tumors, Non-Hodgkin Lymphoma or Multiple Myeloma; assay: Clinical Study A: Phase 1/2 dose finding study of Compound 1 administered orally (tumor response, RECIST 1.1); format: in vivo, human; set-up: key to RECIST* (best target lesion response): PR = partial response; SD = stable disease; PD = progressive disease; NE = nonevaluable; ND = not done
[2] = tested on: Advanced Solid Tumors, Non-Hodgkin Lymphoma, or Multiple Myeloma; assay: Clinical Study B: Phase 1/2 dose finding study of the mTOR kinase inhibitor Compound 1 administered orally (best RECIST overall response, variants, Tables 2 and 3); format: in vivo, human; set-up: key: PR=partial response; SD=stable disease; PD=progressive disease; NE=non-evaluable; ND=not done; *: Confirmed reponse; details: one line per patient
Procedure: A Phase 1/2, Multi-Center, Open-Label, Dose Finding Study to Assess the Safety. Tolerability, Pharmacokinetics and Preliminary Efficacy of the mTOR Kinase Inhibitor Compound 1 Administered Orally to Subjects with Advanced Solid Tumors, Non-Hodgkin Lymphoma, or Multiple Myeloma.
Compound 1 is administered orally to subjects with advanced solid tumors, non-Hodgkin lymphoma (NHL), or multiple myeloma (MM). The study is designed as a Phase 1/2 trial consisting of two parts: dose escalation (Part A) and dose expansion (Part B).
The primary objectives of the study are (a) to determine the safety and tolerability of Compound 1 when administered orally and to define the non-tolerated dose (NTD) and the maximum tolerated dose (MTD) and (b) to determine the preliminary pharmacokinetics (PK) of Compound 1 following both single and multiple oral dosing of Compound 1.
The secondary objectives of the study are: (a) to evaluate the extent of inhibition of phosphorylation of S6RP (Ser235/236 and/or Ser240/244) and/or 4EB-P1 (Thr37/46) for mTORC1 activity and AKT (Ser473) and/or other relevant biomarkers for mTORC2 activity in peripheral blood samples and tumor biopsies following treatment with Compound 1; (b) to provide information on the preliminary efficacy of Compound 1; and (c) to characterize PK of the metabolite of Compound 1 following oral dosing of Compound 1.
In Part A, subjects will receive single and multiple ascending doses of Compound 1 to measure pharmacokinetics (PK) and identify the maximum tolerated dose (MTD). A modified accelerated titration design (Simon et al, J Nat Cancer Inst (1997) Vol. 89, No. 15) will be used to identify initial toxicity. During the accelerated course, initial cohorts of one subject will be given Compound 1 in dose increments of 100% until the first instance of first-course grade 2 or higher toxicity suspected to be drug-related, at which point the accelerated phase will stop, and that particular cohort will be expanded to a total of 6 subjects. Subsequently, a standard escalation schedule, with approximately 50% dose increments and 6-subject cohorts, will be initiated in order to establish the non-tolerated dose (NTD) and MTD. Smaller increments and additional subjects within a dose cohort may also be evaluated. A dose will be considered the NTD when 2 evaluable subjects in a cohort experience drug-related DLT. When the NTD is established, dose escalation will stop. The MTD is defined as the last dose level below the NTD with 0 or 1 out of 6 evaluable subjects experiencing DLT during Cycle 1. An intermediate dose (ie, one between the NTD and the last dose level before the NTD) or additional subjects within any dose cohort may be required to more precisely determine the MTD.
In Part B, subjects may start Compound 1 at the MTD and/or a lower dose level based on safety, PK and PD data from Part A. Approximately 200 subjects will be treated and evaluated for safety and preliminary antitumor activity after every two cycles of therapy. Selected tumor types include non-small cell lung cancer (NSCLC), glioblastoma multiforme (GBM), hepatocellular carcinoma (HCC), gastrointestinal neuroendocrine tumor (NET) of non-pancreatic origin, hormone receptor positive breast cancer (HRPBC), diffuse large B-cell lymphoma (DLBCL), and multiple myeloma (MM). Up to 40 evaluable subjects will be enrolled for each tumor type.
Men and women, 18 years or older, with advanced NHL, MM, or advanced unresectable solid tumors, including subjects who have progressed on (or not been able to tolerate) standard therapy or for whom no standard anticancer therapy exists.
During the first cycle only in Part A, each subject will be administered a single dose of Compound 1 (Day −1), followed by a 48-hour observation and PK sampling period, followed on Day 1 by daily uninterrupted dosing for 28 days (Cycle 1=30 days). In subsequent Part A cycles, subjects are treated in 28-day cycles with continuous dosing from Day 1 to 28. […]

[3] = tested on: hematological cancer cell lines; assay: Growth inhibitory effect of Compound 1 (Cell Titer-Glo, 72 hours, GI50) correlated with biomarkers; format: cell-based
Procedure: Cell Lines and Culture Conditions.
40 hematological cancer cell lines (Table 5) used in the study were purchased commercially. A lung cancer cell line A549 was used as a control cell line. A549 was purchased from National Cancer Institute (NCI) and cultured in RPMI+10% fetal bovine serum (FBS).
Cell pellets were made for 37 cell lines without any compound treatment and a reverse phase protein array (RPPA) was performed as described in Tibes R, et al. Mol Cancer Ther 2006; 5:2512-2521. The RPPA analysis of the 37 hematological cell lines was performed with 262 antibodies. The relative level of each protein in each sample was determined and normalized for protein loading. Protein levels were then transformed to log 2 values and median centered by individual batch.
Cells were lysed in RNeasy kit tissue lysis (RLT) buffer (Qiagen; Valencia, Calif.) and total RNA was isolated using RNeasy. Double-stranded cDNA and biotin-labeled cRNA were synthesized using 100 ng of total RNA using Ambion's MessageAmp Premier RNA Amplification Kit. […]
The seeding density for each cell line was optimized to ensure assay linearity in 384-well plates. […] When ready for testing, plates were removed from the freezer, thawed, and unsealed just prior to the addition of the test cells.
Prior to testing, cells were grown and expanded in culture flasks to provide sufficient amounts of starting material. […] At the time when exposure of cells to compound began (t0), initial cell number was assessed via a viability assay (Cell Titer-Glo) by quantifying the level of luminescence generated by adenosine-5′-triphosphate (ATP) present in viable cells. After 72 hours, cell viability of compound-treated cells was assessed via Cell Titer-Glo and read for luminescence.
Cell lines were assayed for growth inhibition by Compound 1 in at least 3 independent tests. […] The response of the control cell line to the compound was monitored closely to enable comparison of the data generated through the assay period. […] In addition, the IC50 value of Compound 1 for each cell line was calculated.

A549 = assay: Repeat testing of pre-spotted Compound 1 plates against the control cell line (A549); format: cell-based; details: sealed 384-well plates stored at −20° C. for up to 1 month
Procedure: The seeding density for each cell line was optimized to ensure assay linearity in 384-well plates. Increasing concentrations of Compound 1 (0.5 nM to 10 μM) were spotted in a 10-point serial dilution fashion (3-fold dilution) in duplicate within the plate via an acoustic dispenser (EDCATS-100) into an empty 384-well plate. The dimethyl sulfoxide (DMSO) concentration was kept constant for a final assay concentration of 0.1% DMSO. Plates were replicated for use against different cell lines and testing periods. After compound plate replication, all plates were sealed (Agilent ThermoLoc) and stored at −20° C. for up to 1 month. […] When ready for testing, plates were removed from the freezer, thawed, and unsealed just prior to the addition of the test cells.

SMILES: CO[C@H]1CC[C@H](N2C(=O)CNc3ncc(-c4ccc(C(C)(C)O)nc4)nc32)CC1 [Compound 1, 7-(6-(2-hydroxypropan-2-yl)pyridin-3-yl)-1-((trans)-4-methoxycyclohexyl)-3,4-dihydropyrazino[2,3-b]pyrazin-2(1H)-one]
- RECIST* (best target lesion response) ([1]; ER+ patients, genes with mutations of interest): SD (8×) and PD (3×) and PR (2×)
- showing RECIST PR ([1]; patients treated with Compound 1, FIG. 1, data as of September 2014): 2/17
- target lesions showing PR ([1]; patients treated with Compound 1, FIG. 1, data as of September 2014, all with PIK3CA mutations): 3/17
- Best overall response ([2]; patients with HCC exp. (expansion)): SD (2×) and NE
- Best overall response ([2]; patients with MM): PD (8×) and NE and SD (4×)
- Best overall response ([2]; patients with NET exp. (expansion)): SD (17×) and PD (2×) and NE and PR
- Best overall response ([2]; patients with NET): SD (18×) and NE (4×) and PR
- Best overall response ([2]; patients with NSCL+): PR and PD
- Best overall response ([2]; patients with NSCLC): NE (6×) and SD (11×) and PD (2×)
- IRF4 protein levels versus sensitivity to growth inhibition ([3]; 37 hematological cancer cell lines, RPPA, FIG. 5): negatively correlated
- IRF4 gene expression level (Probe Set 216986_s_at) versus sensitivity to growth inhibition ([3]; 40 hematological cancer cell lines, FIG. 4): negatively correlated
- sensitivity versus activation of mTORC1 and mTORC2 (biomarker RPPA) ([3]; subgroup of DLBCL lines, FIG. 6): correlated
- stability in pre-spotted plates (A549): stable
